Results taken from patent US20260297060A1, “COMPOUNDS FOR THE DEGRADATION OF MUTANT BRAF” (C4 THERAPEUTICS, INC., priority 2023, published 2026).
Read-outs that look alike come from different tables or passages of the source.

Molecular target: T1, BRAF V600E (Homo sapiens, UniProt P15056+Q96SW2, V600E)
T1 construct: knock-in of the HiBiT tag to the endogenous BRAF V600E locus; host or cells: A375.10 (A375 clonal line, CRISPR HiBiT knock-in at the endogenous BRAF V600E locus)
Experiment: BRAF V600E HiBiT Degradation Assay
Format: cell-based
Method in brief: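 Endogenous HiBiT knock-in on BRAF V600E in A375 cells (clone A375.10); 11-point half-log series, top 10 μM, 2, 6 or 24 h at 37° C. Lytic HiBiT luminescence, background-subtracted, normalized to DMSO; 4-parameter fit gives DC50, Emax (residual protein) and IP (inflection point).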

[1] = A375.10 cells, BRAF V600E, 2 hours, inflection point, read-out: HiBiT-Degradation A375.10 BRAF 2 hours IP
[2] = A375.10 cells, BRAF V600E, 2 hours, read-out: HiBiT-Degradation A375.10 BRAF 2 hours DC50
[3] = A375.10 cells, BRAF V600E, 2 hours, residual protein remaining, read-out: HiBiT-Degradation A375.10 BRAF 2 hours Emax
[4] = A375.10 cells, BRAF V600E, 6 hours, inflection point, read-out: HiBiT-Degradation A375.10 BRAF 6 hours IP
[5] = A375.10 cells, BRAF V600E, 6 hours, read-out: HiBiT-Degradation A375.10 BRAF 6 hours DC50
[6] = A375.10 cells, BRAF V600E, 6 hours, residual protein remaining, read-out: HiBiT-Degradation A375.10 BRAF 6 hours Emax
[7] = A375.10 cells, HiBiT, BRAF V600E, 24 hours, read-out: HiBiT-Degradation A375.10 BRAF 24 hours DC50
[8] = A375.10 cells, HiBiT, BRAF V600E, 24 hours, read-out: HiBiT-Degradation A375.10 BRAF 24 hours Emax
[9] = A375.10 cells, HiBiT, BRAF V600E, 24 hours, read-out: HiBiT-Degradation A375.10 BRAF 24 hours IP
[10] = read-out: HiBiT-Degradation A375.10 BRAF 2 hours Emax, A375.10 cells, BRAF V600E, 2 hours, residual protein remaining

T1 sequence (P15056 whole entry V600E): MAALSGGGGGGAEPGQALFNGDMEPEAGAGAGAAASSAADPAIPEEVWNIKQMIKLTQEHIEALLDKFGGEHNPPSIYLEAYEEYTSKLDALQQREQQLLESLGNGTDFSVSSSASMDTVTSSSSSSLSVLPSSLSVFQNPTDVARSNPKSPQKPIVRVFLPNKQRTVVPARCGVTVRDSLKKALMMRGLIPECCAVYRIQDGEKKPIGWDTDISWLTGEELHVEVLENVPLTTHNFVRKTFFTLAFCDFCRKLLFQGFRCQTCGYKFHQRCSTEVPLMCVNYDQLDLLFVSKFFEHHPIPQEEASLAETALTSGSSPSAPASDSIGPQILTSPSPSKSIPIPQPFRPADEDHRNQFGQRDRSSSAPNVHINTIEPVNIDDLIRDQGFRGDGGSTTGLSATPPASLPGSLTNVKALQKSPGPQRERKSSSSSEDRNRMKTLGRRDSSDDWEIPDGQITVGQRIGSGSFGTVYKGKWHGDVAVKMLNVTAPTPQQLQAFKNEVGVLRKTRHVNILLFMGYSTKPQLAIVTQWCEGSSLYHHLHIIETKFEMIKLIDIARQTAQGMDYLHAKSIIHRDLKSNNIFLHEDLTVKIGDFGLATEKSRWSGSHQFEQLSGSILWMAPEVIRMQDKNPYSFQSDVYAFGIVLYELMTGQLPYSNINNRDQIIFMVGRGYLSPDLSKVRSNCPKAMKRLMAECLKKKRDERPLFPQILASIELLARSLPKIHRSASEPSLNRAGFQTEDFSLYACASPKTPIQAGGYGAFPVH
T1 sequence (Q96SW2 whole entry): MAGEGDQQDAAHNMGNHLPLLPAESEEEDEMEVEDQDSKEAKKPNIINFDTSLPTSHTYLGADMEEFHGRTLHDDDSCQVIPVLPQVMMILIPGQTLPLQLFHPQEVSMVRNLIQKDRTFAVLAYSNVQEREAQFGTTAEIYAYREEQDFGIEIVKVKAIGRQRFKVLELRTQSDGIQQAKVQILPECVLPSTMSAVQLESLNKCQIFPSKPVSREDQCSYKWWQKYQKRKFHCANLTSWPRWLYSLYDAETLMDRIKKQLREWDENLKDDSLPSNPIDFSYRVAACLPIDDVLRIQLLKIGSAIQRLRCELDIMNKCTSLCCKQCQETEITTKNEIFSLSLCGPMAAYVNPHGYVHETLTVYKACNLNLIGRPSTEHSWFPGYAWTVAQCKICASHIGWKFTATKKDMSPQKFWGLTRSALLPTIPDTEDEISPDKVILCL
T1 sequence (Q16531 whole entry partner): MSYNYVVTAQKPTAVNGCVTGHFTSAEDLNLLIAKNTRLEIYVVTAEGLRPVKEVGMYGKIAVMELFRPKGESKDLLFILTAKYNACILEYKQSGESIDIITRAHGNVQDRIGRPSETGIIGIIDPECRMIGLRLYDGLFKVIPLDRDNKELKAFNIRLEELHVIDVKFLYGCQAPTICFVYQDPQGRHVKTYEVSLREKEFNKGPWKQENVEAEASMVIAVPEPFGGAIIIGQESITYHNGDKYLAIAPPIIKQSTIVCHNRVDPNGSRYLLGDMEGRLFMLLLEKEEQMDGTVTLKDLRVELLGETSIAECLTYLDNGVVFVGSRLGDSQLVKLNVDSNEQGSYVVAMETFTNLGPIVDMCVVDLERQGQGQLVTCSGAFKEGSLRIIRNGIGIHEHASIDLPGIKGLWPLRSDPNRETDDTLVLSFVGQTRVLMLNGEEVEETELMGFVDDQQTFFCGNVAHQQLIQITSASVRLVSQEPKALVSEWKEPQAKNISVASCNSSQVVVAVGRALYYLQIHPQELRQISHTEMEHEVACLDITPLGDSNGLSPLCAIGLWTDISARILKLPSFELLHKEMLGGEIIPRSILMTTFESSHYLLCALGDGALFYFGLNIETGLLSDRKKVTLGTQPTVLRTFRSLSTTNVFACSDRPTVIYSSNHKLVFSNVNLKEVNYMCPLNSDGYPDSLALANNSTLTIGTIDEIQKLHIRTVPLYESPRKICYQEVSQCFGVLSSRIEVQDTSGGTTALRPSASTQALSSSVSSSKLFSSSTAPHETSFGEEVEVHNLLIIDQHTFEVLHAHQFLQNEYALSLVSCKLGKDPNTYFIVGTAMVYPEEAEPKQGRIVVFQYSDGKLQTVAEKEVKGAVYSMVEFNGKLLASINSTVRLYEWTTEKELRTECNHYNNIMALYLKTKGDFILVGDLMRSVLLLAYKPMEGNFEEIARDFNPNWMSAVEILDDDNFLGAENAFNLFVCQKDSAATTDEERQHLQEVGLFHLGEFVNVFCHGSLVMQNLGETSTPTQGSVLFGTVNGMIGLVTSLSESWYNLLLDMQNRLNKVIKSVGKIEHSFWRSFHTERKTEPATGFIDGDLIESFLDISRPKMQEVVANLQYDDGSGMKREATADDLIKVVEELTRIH

| SMILES | DC50 [1] [nM] | DC50 [2] [nM] | Emax [3] [%] | DC50 [4] [nM] | DC50 [5] [nM] | Emax [6] [%] | DC50 [7] [nM] | Emax [8] [%] | DC50 [9] [nM] | Emax [10] [%] |
| --- | --- | --- | --- | --- | --- | --- | --- | --- | --- | --- |
| CC(C)S(=O)(=O)Nc1ccc(F)c(Oc2ccc3ncn([C@H]4COC5(CCN(C6CCC(c7cc8c(cc7F)c(N7CCC(=O)NC7=O)nn8C)CC6)CC5)C4)c(=O)c3c2)c1C#N (single isomer, unassigned) [Compound 87] | < 1000 | < 1000 | < 50 | < 1000 | < 1000 | < 50 | < 1000 | < 50 | < 1000 |  |
| CCN(C)S(=O)(=O)Nc1ccc(F)c(Nc2ccc3ncn([C@@H]4COC5(CCN(C6CCC(c7ccc(NC8CCC(=O)NC8=O)cc7F)CC6)CC5)C4)c(=O)c3c2F)c1C#N (single isomer, unassigned) [Compound 90] | < 1000 | < 1000 | < 50 | < 1000 | < 1000 | < 50 | < 1000 | < 50 | < 1000 |  |
| CC(C)S(=O)(=O)Nc1ccc(F)c(Oc2ccc3ncn([C@H]4COC5(CCN(C6CCC(c7ccc(NC8CCC(=O)NC8=O)cc7F)CC6)CC5)C4)c(=O)c3c2)c1C#N (single isomer, unassigned) [Compound 92] | < 1000 | < 1000 | < 50 | < 1000 | < 1000 | < 50 | < 1000 | < 50 | < 1000 |  |
| Cn1nc(N2CCC(=O)NC2=O)c2cc(F)c(C3CCC(N4CCC5(CC4)CC(n4cnc6ccc(Oc7c(F)ccc(NS(=O)(=O)C8CCCC8)c7C#N)cc6c4=O)C5)CC3)cc21 (single isomer, unassigned) [Compound 93, N-[2-cyano-3-[3-[7-[4-[3-(2,4-dioxohexahydropyrimidin-1-yl)-5-fluoro-1-methyl-indazol-6-yl]cyclohexyl]-7-azaspiro[3.5]nonan-2-yl]-4-oxo-quinazolin-6-yl]oxy-4-fluoro-phenyl]cyclopentanesulfonamide] | < 1000 | < 1000 |  | < 1000 | < 1000 | < 50 | < 1000 | < 50 | < 1000 | < 50 |
| CC(C)S(=O)(=O)Nc1ccc(F)c(Oc2ccc3ncn(C4CC5(CCN(C6CCC(c7cc8c(cc7F)c(N7CCC(=O)NC7=O)nn8C)CC6)CC5)C4)c(=O)c3c2)c1C#N (single isomer, unassigned) [Compound 95, N-[2-cyano-3-[3-[7-[4-[3-(2,4-dioxohexahydropyrimidin-1-yl)-5-fluoro-1-methyl-indazol-6-yl]cyclohexyl]-7-azaspiro[3.5]nonan-2-yl]-4-oxo-quinazolin-6-yl]oxy-4-fluoro-phenyl]propane-2-sulfonamide] | < 1000 | < 1000 | < 50 | < 1000 | < 1000 | < 50 | < 1000 | < 50 | < 1000 |  |
| CO[C@@H]1CCN(S(=O)(=O)Nc2ccc(F)c(Oc3ccc4ncn([C@H]5COC6(CCN(C7CCC(c8cc9c(cc8F)c(N8CCC(=O)NC8=O)nn9C)CC7)CC6)C5)c(=O)c4c3)c2C#N)C1 (single isomer, unassigned) [Compound 100] | < 1000 | < 1000 | < 50 | < 1000 | < 1000 | < 50 | < 1000 | < 50 | < 1000 |  |
| CO[C@@H]1CCN(S(=O)(=O)Nc2ccc(F)c(Oc3ccc4ncn(C5CC6(CCN(C7CCC(c8cc9c(cc8F)c(N8CCC(=O)NC8=O)nn9C)CC7)CC6)C5)c(=O)c4c3)c2C#N)C1 (single isomer, unassigned) [Compound 101] | < 1000 | < 1000 | < 50 | < 1000 | < 1000 | < 50 | < 1000 | < 50 | < 1000 |  |
| CO[C@H]1CCN(S(=O)(=O)Nc2ccc(F)c(Oc3ccc4ncn(C5CC6(CCN(C7CCC(c8cc9c(cc8F)c(N8CCC(=O)NC8=O)nn9C)CC7)CC6)C5)c(=O)c4c3)c2C#N)C1 (single isomer, unassigned) [Compound 103] | < 1000 | < 1000 | < 50 | < 1000 | < 1000 | < 50 | < 1000 | < 50 | < 1000 |  |
| CO[C@@H]1CCN(S(=O)(=O)Nc2ccc(F)c(Oc3ccc4ncn([C@H]5COC6(CCN(C7CCC(c8ccc(NC9CCC(=O)NC9=O)cc8F)CC7)CC6)C5)c(=O)c4c3)c2C#N)C1 (single isomer, unassigned) [Compound 109] | < 1000 | < 1000 | < 50 | < 1000 | < 1000 | < 50 | < 1000 | < 50 | < 1000 |  |
| CCN(C)S(=O)(=O)Nc1ccc(F)c(Oc2ccc3ncc(OC4CCN(C5CCC(c6ccc(NC7CCC(=O)NC7=O)cc6F)CC5)CC4)nc3c2)c1C#N (single isomer, unassigned) [Compound 110, 7-[2-cyano-3-[[ethyl(methyl)sulfamoyl]amino]-6-fluoro-phenoxy]-2-[[1-[4-[4-[(2,6-dioxo-3-piperidyl)amino]-2-fluoro-phenyl]cyclohexyl]-4-piperidyl]oxy]quinoxaline] | < 1000 | < 1000 | 50 to 90 | < 1000 | < 1000 | < 50 | < 1000 | < 50 | < 1000 |  |
| Cn1nc(N2CCC(=O)NC2=O)c2cc(F)c(C3CCC(N4CCC5(CC4)C[C@@H](n4cnc6ccc(Oc7c(F)ccc(NS(=O)(=O)C8CCCC8)c7C#N)cc6c4=O)CO5)CC3)cc21 (single isomer, unassigned) [Compound 113] | < 1000 | < 1000 | < 50 | < 1000 | < 1000 | < 50 | < 1000 | < 50 | < 1000 |  |
| CO[C@H]1CCN(S(=O)(=O)Nc2ccc(F)c(Oc3ccc4ncn([C@H]5COC6(CCN(C7CCC(c8cc9c(cc8F)c(N8CCC(=O)NC8=O)nn9C)CC7)CC6)C5)c(=O)c4c3)c2C#N)C1 (single isomer, unassigned) [Compound 115] | < 1000 | < 1000 | < 50 | < 1000 | < 1000 | < 50 | < 1000 | < 50 | < 1000 |  |
| CCN(C)S(=O)(=O)Nc1ccc(F)c(Oc2ccc3ncc(OCC4CCN(C5CCC(c6cc7c(cc6F)c(N6CCC(=O)NC6=O)nn7C)CC5)CC4)nc3c2)c1C#N (single isomer, unassigned) [Compound 118, 7-[2-cyano-3-[[ethyl(methyl)sulfamoyl]amino]-6-fluoro-phenoxy]-2-[[1-[4-[3-(2,4-dioxohexahydropyrimidin-1-yl)-5-fluoro-1-methyl-indazol-6-yl]cyclohexyl]-4-piperidyl]methoxy]quinoxaline] | < 1000 | < 1000 |  | < 1000 | < 1000 | < 50 | < 1000 | < 50 | < 1000 | 50 to 90 |
| Cn1nc(N2CCC(=O)NC2=O)c2cc(F)c(C3CCC(N4CCC5(CC4)C[C@@H](n4cnc6ccc(Oc7c(F)ccc(NS(=O)(=O)N8CC[C@@H](F)C8)c7C#N)cc6c4=O)CO5)CC3)cc21 (single isomer, unassigned) [Compound 121] | < 1000 | < 1000 | < 50 | < 1000 | < 1000 | < 50 | < 1000 | < 50 | < 1000 |  |
| Cn1nc(N2CCC(=O)NC2=O)c2cc(F)c(C3CCC(N4CCC5(CC4)CC(n4cnc6ccc(Oc7c(F)ccc(NS(=O)(=O)N8CC[C@@H](F)C8)c7C#N)cc6c4=O)C5)CC3)cc21 (single isomer, unassigned) [Compound 122] | < 1000 | < 1000 | < 50 | < 1000 | < 1000 | < 50 | < 1000 | < 50 | < 1000 |  |
| CCN(C)S(=O)(=O)Nc1ccc(F)c(Oc2ccc3ncn(CC4CCN(C5CCC(c6cc7c(cc6F)c(N6CCC(=O)NC6=O)nn7C)CC5)CC4)c(=O)c3c2)c1C#N (single isomer, unassigned) [Compound 126, 6-[2-cyano-3-[[ethyl(methyl)sulfamoyl]amino]-6-fluoro-phenoxy]-3-[[1-[4-[3-(2,4-dioxohexahydropyrimidin-1-yl)-5-fluoro-1-methyl-indazol-6-yl]cyclohexyl]-4-piperidyl]methyl]-4-oxo-quinazoline] | < 1000 | < 1000 | < 50 | < 1000 | < 1000 | < 50 | < 1000 | < 50 | < 1000 |  |
